Measurements published in ChEMBL document CHEMBL1201862, “PubChem BioAssay data set” (2004).
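Each compound was tested at five concentrations against cells in 96-well plates for 48 hours. At the GI50, growth is halved.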 The source made the active and inactive calls. No stated cut-off is given here; in the data, active = GI50 up to about 1.1 µM and inactive = higher.

What was measured:
Experiment in all cases: NCI-60 cell line screen, 48 h
786-0 = test system: 786-0
A549 = test system: A549
BT-549 = test system: BT-549
CCRF-CEM = test system: CCRF-CEM
COLO 205 = test system: COLO 205
DU-145 = test system: DU-145
EKVX = test system: EKVX
HCC 2998 = test system: HCC 2998
HCT-116 = test system: HCT-116
HCT-15 = test system: HCT-15
HL-60 = test system: HL-60
HOP-62 = test system: HOP-62
HOP-92 = test system: HOP-92
HT-29 = test system: HT-29
IGROV-1 = test system: IGROV-1
K562 = test system: K562
KM12 = test system: KM12
LOX IMVI = test system: LOX IMVI
M14 = test system: M14
MCF7 = test system: MCF7
MDA-MB-231 = test system: MDA-MB-231
MDA-MB-435 = test system: MDA-MB-435
MDA-N = test system: MDA-N
MOLT-4 = test system: MOLT-4
NCI-H23 = test system: NCI-H23
NCI-H460 = test system: NCI-H460
NCI-H522 = test system: NCI-H522
OVCAR-3 = test system: OVCAR-3
OVCAR-4 = test system: OVCAR-4
OVCAR-5 = test system: OVCAR-5
OVCAR-8 = test system: OVCAR-8
PC-3 = test system: PC-3
RPMI-8226 = test system: RPMI-8226
SF-268 = test system: SF-268
SF-295 = test system: SF-295
SF-539 = test system: SF-539
SK-MEL-28 = test system: SK-MEL-28
SK-MEL-5 = test system: SK-MEL-5
SK-OV-3 = test system: SK-OV-3
SN12C = test system: SN12C
SNB-19 = test system: SNB-19
SNB-75 = test system: SNB-75
SR = test system: SR
SW-620 = test system: SW-620
T47D = test system: T47D
TK-10 = test system: TK-10
U-251 = test system: U-251
UACC-257 = test system: UACC-257
UACC-62 = test system: UACC-62
UO-31 = test system: UO-31
A498 = test system: A498
ACHN = test system: ACHN
CAKI-1 = test system: CAKI-1
Malme-3M = test system: Malme-3M
NCI-H226 = test system: NCI-H226
NCI/ADR-RES = test system: NCI/ADR-RES
RXF 393 = test system: RXF 393
SK-MEL-2 = test system: SK-MEL-2

Measured: GI50

CCOc1ncn(-c2ccc(NC(=S)NC34CC5CC(CC(C5)C3)C4)cc2)n1
> 100 µM: HCT-15
inactive: 786-0 13.2 µM | A549 7.24 µM | BT-549 > 100 µM | CCRF-CEM > 100 µM | COLO 205 > 100 µM | DU-145 > 100 µM | EKVX > 100 µM | HCC 2998 > 100 µM | HCT-116 68.4 µM | HL-60 > 100 µM | HOP-62 35.2 µM | HOP-92 25 µM | HT-29 80.5 µM | IGROV-1 > 100 µM | K562 > 100 µM | KM12 8.47 µM | LOX IMVI > 100 µM | M14 61.9 µM | MCF7 > 100 µM | MDA-MB-231 76.4 µM | MDA-MB-435 > 100 µM | MDA-N > 100 µM | MOLT-4 > 100 µM | NCI-H23 > 100 µM | NCI-H460 53.5 µM | NCI-H522 99.1 µM | OVCAR-3 > 100 µM | OVCAR-4 22.3 µM | OVCAR-5 > 100 µM | OVCAR-8 22.8 µM | PC-3 > 100 µM | RPMI-8226 > 100 µM | SF-268 > 100 µM | SF-295 48.4 µM | SF-539 > 100 µM | SK-MEL-28 61.8 µM | SK-MEL-5 58.5 µM | SK-OV-3 33.2 µM | SN12C > 100 µM | SNB-19 46.1 µM | SNB-75 25.4 µM | SR > 100 µM | SW-620 > 100 µM | T47D > 100 µM | TK-10 59.2 µM | U-251 > 10 µM | UACC-257 > 100 µM | UACC-62 38 µM | UO-31 > 100 µM

c1cc2c(c(-c3c4ccccc4nc4ccccc34)c1)CC1(CC2)OCCO1
inactive: 786-0 > 100 µM | A498 > 100 µM | A549 > 100 µM | ACHN > 100 µM | BT-549 > 100 µM | CAKI-1 > 100 µM | COLO 205 > 100 µM | EKVX > 100 µM | HCC 2998 > 100 µM | HCT-116 > 100 µM | HOP-62 > 100 µM | HOP-92 > 100 µM | IGROV-1 > 100 µM | K562 > 100 µM | KM12 > 100 µM | LOX IMVI > 100 µM | M14 > 100 µM | MCF7 > 100 µM | MDA-MB-231 > 100 µM | MDA-MB-435 > 100 µM | MDA-N > 100 µM | MOLT-4 > 100 µM | Malme-3M > 100 µM | NCI-H226 > 100 µM | NCI-H23 > 100 µM | NCI-H460 > 100 µM | NCI-H522 > 100 µM | NCI/ADR-RES > 100 µM | OVCAR-3 > 100 µM | OVCAR-4 > 100 µM | OVCAR-5 > 100 µM | OVCAR-8 > 100 µM | PC-3 > 100 µM | RPMI-8226 > 100 µM | RXF 393 > 100 µM | SF-268 > 100 µM | SF-295 > 100 µM | SF-539 > 100 µM | SK-MEL-28 > 100 µM | SK-MEL-2 > 100 µM | SK-MEL-5 > 100 µM | SK-OV-3 > 100 µM | SN12C > 100 µM | SNB-19 > 100 µM | SNB-75 > 100 µM | SW-620 > 100 µM | T47D > 100 µM | TK-10 > 100 µM | U-251 > 100 µM | UACC-257 > 100 µM | UO-31 > 100 µM
> 100 µM: HCT-15

CC1(C)OCC(C2OC(OC(=O)c3ccc([N+](=O)[O-])cc3)C3OC(C)(C)OC23)O1 (configuration not stated)
> 100 µM: HCT-15
inactive: 786-0 51.8 µM | A498 > 100 µM | A549 > 100 µM | ACHN 60.5 µM | BT-549 > 100 µM | CAKI-1 > 100 µM | CCRF-CEM > 100 µM | COLO 205 > 100 µM | DU-145 > 100 µM | EKVX 61.8 µM | HCC 2998 > 100 µM | HCT-116 > 100 µM | HOP-62 27.3 µM | HT-29 > 100 µM | IGROV-1 > 100 µM | K562 > 100 µM | KM12 > 100 µM | LOX IMVI > 100 µM | M14 > 100 µM | MCF7 > 100 µM | MDA-MB-231 > 100 µM | MDA-MB-435 > 100 µM | MDA-N > 100 µM | MOLT-4 > 100 µM | Malme-3M > 100 µM | NCI-H226 > 100 µM | NCI-H23 > 100 µM | NCI-H460 > 100 µM | NCI-H522 75.5 µM | NCI/ADR-RES 69.5 µM | OVCAR-3 > 100 µM | OVCAR-4 > 100 µM | OVCAR-5 > 100 µM | OVCAR-8 > 100 µM | PC-3 > 100 µM | RPMI-8226 > 100 µM | RXF 393 58.1 µM | SF-268 20.5 µM | SF-295 53.2 µM | SF-539 > 100 µM | SK-MEL-28 > 100 µM | SK-MEL-2 > 100 µM | SK-MEL-5 > 100 µM | SK-OV-3 > 100 µM | SN12C > 100 µM | SNB-19 59 µM | SNB-75 16.6 µM | SR > 100 µM | SW-620 > 100 µM | TK-10 > 100 µM | U-251 49 µM | UACC-257 > 100 µM | UACC-62 > 100 µM | UO-31 66.1 µM
